Assay results from US20080194482A1, “Selective Apac2 Receptor Peptide Agonists” (priority 2005, published 2008).
Square brackets hold non-standard residues; d marks the D form. Peptide text beside a SMILES is read from it. * marks the point of attachment. Orn = NCCC[C@H](N)C(=O)O; Hexanoyl = CCCCCC(=O)*; Aib = CC(C)(N)C(=O)O

T1: human VPAC2 (Homo sapiens, UniProt P41587)
T1 construct: expressed in transfected cells
T1 sequence (P41587 24-438): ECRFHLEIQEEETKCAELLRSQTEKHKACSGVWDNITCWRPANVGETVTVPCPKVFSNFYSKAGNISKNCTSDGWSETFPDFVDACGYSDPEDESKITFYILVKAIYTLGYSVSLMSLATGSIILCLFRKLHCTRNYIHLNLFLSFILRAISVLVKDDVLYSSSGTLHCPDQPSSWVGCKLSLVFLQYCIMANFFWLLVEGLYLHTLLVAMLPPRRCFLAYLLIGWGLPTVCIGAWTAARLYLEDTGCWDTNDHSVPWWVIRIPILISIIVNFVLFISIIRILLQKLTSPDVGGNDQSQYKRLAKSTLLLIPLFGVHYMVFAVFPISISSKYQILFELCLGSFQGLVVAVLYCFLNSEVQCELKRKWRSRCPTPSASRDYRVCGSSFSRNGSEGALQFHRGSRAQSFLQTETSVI

T2: human PAC1 (Homo sapiens, UniProt P41586)
T2 construct: expressed in transfected cells
T2 sequence (P41586 21-468): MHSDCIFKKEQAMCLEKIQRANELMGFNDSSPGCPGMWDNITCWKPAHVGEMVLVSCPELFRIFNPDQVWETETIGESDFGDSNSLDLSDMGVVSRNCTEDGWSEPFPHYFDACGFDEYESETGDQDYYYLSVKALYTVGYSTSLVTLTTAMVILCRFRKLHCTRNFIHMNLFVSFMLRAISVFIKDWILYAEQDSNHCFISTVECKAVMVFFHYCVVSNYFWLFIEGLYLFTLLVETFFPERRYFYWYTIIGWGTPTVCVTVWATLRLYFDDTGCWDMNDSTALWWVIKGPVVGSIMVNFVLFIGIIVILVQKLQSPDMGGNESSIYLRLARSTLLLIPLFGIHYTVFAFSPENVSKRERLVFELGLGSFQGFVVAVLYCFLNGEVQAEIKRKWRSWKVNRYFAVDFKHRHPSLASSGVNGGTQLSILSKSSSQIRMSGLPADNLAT

T3: rat VPAC2 receptor (Rattus norvegicus, UniProt P35000)
T3 construct: expressed in transfected cells; host or cells: CHO-PO (transient, Lipofectamine)
T3 sequence (P35000 23-437): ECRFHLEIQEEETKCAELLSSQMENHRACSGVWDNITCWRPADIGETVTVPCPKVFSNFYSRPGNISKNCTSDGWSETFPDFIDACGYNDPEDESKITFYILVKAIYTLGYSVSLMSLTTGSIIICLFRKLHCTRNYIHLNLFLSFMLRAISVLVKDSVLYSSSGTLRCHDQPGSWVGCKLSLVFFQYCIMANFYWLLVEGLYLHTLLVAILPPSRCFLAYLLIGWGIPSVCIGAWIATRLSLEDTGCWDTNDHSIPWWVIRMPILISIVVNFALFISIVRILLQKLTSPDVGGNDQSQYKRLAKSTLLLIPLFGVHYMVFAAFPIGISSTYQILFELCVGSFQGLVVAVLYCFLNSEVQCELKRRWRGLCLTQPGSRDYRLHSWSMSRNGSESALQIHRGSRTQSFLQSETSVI

T4: rat VPAC1 receptor (Rattus norvegicus, UniProt P30083)
T4 construct: expressed in transfected cells; host or cells: CHO-PO (transient, Lipofectamine)
T4 sequence (P30083 31-459): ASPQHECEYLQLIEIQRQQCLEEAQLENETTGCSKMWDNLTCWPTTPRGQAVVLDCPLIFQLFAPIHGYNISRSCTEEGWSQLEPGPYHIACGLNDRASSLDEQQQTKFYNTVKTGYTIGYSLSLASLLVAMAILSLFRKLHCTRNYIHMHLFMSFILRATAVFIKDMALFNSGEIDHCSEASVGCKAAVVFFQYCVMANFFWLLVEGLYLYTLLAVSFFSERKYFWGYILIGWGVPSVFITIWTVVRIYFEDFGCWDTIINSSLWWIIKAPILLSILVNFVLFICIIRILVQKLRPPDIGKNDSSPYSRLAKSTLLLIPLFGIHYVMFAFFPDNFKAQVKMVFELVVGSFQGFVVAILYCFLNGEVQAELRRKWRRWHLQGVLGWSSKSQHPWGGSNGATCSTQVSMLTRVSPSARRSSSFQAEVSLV

T5: human VPAC1 (Homo sapiens, UniProt P32241)
T5 construct: expressed in transfected cells
T5 sequence (P32241 31-457): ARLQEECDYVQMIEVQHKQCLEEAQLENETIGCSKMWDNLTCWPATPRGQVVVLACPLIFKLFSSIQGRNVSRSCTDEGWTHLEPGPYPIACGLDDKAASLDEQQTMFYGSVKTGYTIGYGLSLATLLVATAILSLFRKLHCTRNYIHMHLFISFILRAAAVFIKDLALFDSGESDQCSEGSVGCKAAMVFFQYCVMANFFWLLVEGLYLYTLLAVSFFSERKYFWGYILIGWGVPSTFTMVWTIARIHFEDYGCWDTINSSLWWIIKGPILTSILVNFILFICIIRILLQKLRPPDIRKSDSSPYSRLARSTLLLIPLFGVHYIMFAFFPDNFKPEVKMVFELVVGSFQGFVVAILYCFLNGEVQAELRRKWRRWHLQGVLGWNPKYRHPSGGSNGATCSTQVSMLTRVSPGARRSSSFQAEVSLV

T6: human VPAC2 receptor (human, UniProt P41587 24-438)
T6 sequence (looked up): T1 sequence (P41587 24-438)

T7: human VPAC1 receptor (human, UniProt P32241 31-457)
T7 sequence (looked up): T5 sequence (P32241 31-457)


Experiments:
human VPAC2 [1] = molecular target: T1, human VPAC2; assay: Alpha screen cAMP assay, in vitro potency at human VPAC2 receptor; format: cell-based; details: cAMP generation; single result from two analyses in a single run, some values average of more than one experiment
human VPAC2 [2] = molecular target: T1, human VPAC2; assay: Filter binding assay, 125I-labeled VIP tracer, VPAC2 membranes; details: read-out: Human VPAC2 Receptor Binding (IC50; nM)
human PAC1 = molecular target: T2, human PAC1; assay: Filter binding assay, 125I-labeled PACAP-27 tracer, PAC1 membranes; details: read-out: Human PAC1 Receptor Binding (IC50; nM)
rat VPAC2 receptor = molecular target: T3, rat VPAC2 receptor; assay: DiscoveRx cAMP assay, in vitro potency at rat VPAC2 receptor; format: cell-based; details: CHO-PO cells transiently transfected with rat VPAC2; cAMP generation; mean of two independent runs
rat VPAC1 receptor = molecular target: T4, rat VPAC1 receptor; assay: DiscoveRx cAMP assay, in vitro potency at rat VPAC1 receptor; format: cell-based; details: CHO-PO cells transiently transfected with rat VPAC1; cAMP generation; mean of two independent runs
Procedure: DiscoveRx: CHO-PO cells are transiently transfected with rat VPAC1 or VPAC2 receptor DNA using commercially available transfection reagents (Lipofectamine from Invitrogen). The cells are seeded at a density of 10,000/well in a 96-well plate and are allowed to grow for 3 days in […] culture medium. At day 3, the assay is performed.
On the day of the experiment, the medium is removed. Also, the cells are washed twice. The cells are incubated in assay buffer plus IBMX for 15 minutes at room temperature. Afterwards, the stimuli are added and are dissolved in assay buffer. The stimuli are present for 30 minutes. Then, the assay buffer is gently removed. The cell lysis reagent of the DiscoveRx cAMP kit is added. Thereafter, the standard protocol for developing the cAMP signal as described by the manufacturer is used (DiscoveRx Inc., USA). EC50 values for cAMP generation are calculated from the raw signal or are based on absolute cAMP levels as determined by a standard curve performed on each plate.
Results for each agonist are the mean of two independent runs. Rat VPAC1 and VPAC2 results are only generated using the DiscoveRx assay.

human VPAC1 = molecular target: T5, human VPAC1; assay: Filter binding assay, 125I-labeled VIP tracer, VPAC1 membranes; details: read-out: Human VPAC1 Receptor Binding (IC50; nM)
[3] = Rat serum stability (activity remaining, CHO-VPAC2 DiscoveRx read-out); format: in vitro ADME
Summary of the method: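 Peptides preincubated overnight in rat serum at 37 °C without aprotinin versus 4 °C with aprotinin, then tested as 11-point 5× dilutions in duplicate on CHO-VPAC2 cells, 30 min at RT. cAMP measured by DiscoveRx kit against standards; EC50 derived for each aliquot.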

human VPAC2 receptor = molecular target: T6, human VPAC2 receptor; assay: cell-based or functional assay
human VPAC1 receptor = molecular target: T7, human VPAC1 receptor; assay: cell-based or functional assay

Row | Molecule | EC50 (human VPAC2 [1]) | IC50 (human VPAC2 [2]) | IC50 (human PAC1) | EC50 (rat VPAC2 receptor) | EC50 (rat VPAC1 receptor) | IC50 (human VPAC1) | Rat Serum Stability (estimated purity in % after overnight incub.) [3] | Human VPAC2 Receptor: DiscoveRx (EC50; nM), cAMP generation (human VPAC2 receptor) | Human VPAC1 Receptor: DiscoveRx (EC50; nM), cAMP generation (human VPAC1 receptor)
1 | CCCCCC(=O)N[C@@H](Cc1c[nH]cn1)C(=O)N[C@@H](CO)C(=O)N[C@@H](CC(=O)O)C(=O)N[C@@H](C)C(=O)N[C@H](C(=O)N[C@@H](Cc1ccccc1)C(=O)N[C@H](C(=O)N[C@@H](CC(=O)O)C(=O)N[C@@H](CCC(N)=O)C(=O)N[C@@H](Cc1ccc(O)cc1)C(=O)N[C@H](C(=O)N[C@@H](CCCN)C(=O)N[C@@H](CC(C)C)C(=O)N[C@@H](CCCNC(=N)N)C(=O)NC(C)(C)C(=O)N[C@@H](CCC(N)=O)C(=O)N[C@@H](CC(C)C)C(=O)N[C@@H](C)C(=O)N[C@@H](C)C(=O)NC(C)(C)C(=O)N[C@@H](CCCN)C(=O)N[C@@H](Cc1ccc(O)cc1)C(=O)N[C@@H](CC(C)C)C(=O)N[C@@H](CCC(N)=O)C(=O)N[C@@H](CO)C(=O)N[C@H](C(=O)N[C@@H](CCCN)C(=O)N[C@@H](CCCN)C(=O)NCC(=O)NCC(=O)N1CCC[C@H]1C(=O)N[C@@H](CO)C(=O)N[C@@H](CO)C(=O)NCC(=O)N[C@@H](C)C(=O)N1CCC[C@H]1C(=O)N1CCC[C@H]1C(=O)N1CCC[C@H]1C(=O)N[C@@H](CO)C(=O)O)[C@@H](C)CC)[C@@H](C)O)[C@@H](C)O)C(C)C [Agonist P395] (Hexanoyl-HSDAVFTDQYT[Orn]LR[Aib]QLAA[Aib][Orn]YLQSI[Orn][Orn]GGPSSGAPPPS-OH; C-terminus assumed) | 0.15 nM | 0.24 nM | > 25000 nM | 0.03 nM | 0.35 nM |  |  |  | 
2 | CCCCCC(=O)N[C@@H](Cc1c[nH]cn1)C(=O)N[C@@H](CO)C(=O)N[C@@H](CC(=O)O)C(=O)N[C@@H](C)C(=O)N[C@H](C(=O)N[C@@H](Cc1ccccc1)C(=O)N[C@H](C(=O)N[C@@H](CCC(=O)O)C(=O)N[C@@H](CCC(N)=O)C(=O)N[C@@H](Cc1ccc(OC)cc1)C(=O)N[C@H](C(=O)N[C@@H](CCCN)C(=O)N[C@@H](CC(C)C)C(=O)N[C@@H](CCCNC(=N)N)C(=O)NC(C)(C)C(=O)N[C@@H](CCC(N)=O)C(=O)N[C@H](C(=O)N[C@@H](C)C(=O)N[C@@H](C)C(=O)NC(C)(C)C(=O)N[C@@H](CCCN)C(=O)N[C@@H](Cc1ccc(O)cc1)C(=O)N[C@@H](CC(C)C)C(=O)N[C@@H](CCC(N)=O)C(=O)N[C@@H](CO)C(=O)N[C@H](C(=O)N[C@@H](CCCN)C(=O)N[C@@H](CCCN)C(=O)NCC(=O)NCC(=O)N1CCC[C@H]1C(=O)N[C@@H](CO)C(=O)N[C@@H](CO)C(=O)NCC(=O)N[C@@H](C)C(=O)N1CCC[C@H]1C(=O)N1CCC[C@H]1C(=O)N1CCC[C@H]1C(=O)N[C@@H](CO)C(N)=O)[C@@H](C)CC)C(C)C)[C@@H](C)O)[C@@H](C)O)C(C)C [Agonist P488] (Hexanoyl-HSDAVFTEQY(Me)T[Orn]LR[Aib]QVAA[Aib][Orn]YLQSI[Orn][Orn]GGPSSGAPPPS-NH2) | 0.19 nM | 0.64 nM |  | 0.09 nM | 1.66 nM | > 1000 nM | 193.17% |  | 
3 | CCCCCC(=O)N[C@@H](Cc1c[nH]cn1)C(=O)N[C@@H](CO)C(=O)N[C@@H](CC(=O)O)C(=O)N[C@@H](C)C(=O)N[C@H](C(=O)N[C@@H](Cc1ccccc1)C(=O)N[C@H](C(=O)N[C@@H](CC(=O)O)C(=O)N[C@@H](CC(N)=O)C(=O)N[C@@H](Cc1ccc(O)cc1)C(=O)N[C@H](C(=O)N[C@@H](CCCN)C(=O)N[C@@H](CC(C)C)C(=O)N[C@@H](CCCNC(=N)N)C(=O)NC(C)(C)C(=O)N[C@@H](CCC(N)=O)C(=O)N[C@H](C(=O)N[C@@H](C)C(=O)N[C@@H](C)C(=O)NC(C)(C)C(=O)N[C@@H](CCCCN)C(=O)N[C@@H](Cc1ccc(O)cc1)C(=O)N[C@@H](CC(C)C)C(=O)N[C@@H](CCC(N)=O)C(=O)N[C@@H](CS)C(=O)N[C@H](C(=O)N[C@@H](CCCN)C(=O)N[C@@H](CC(N)=O)C(=O)N[C@@H](CCCN)C(=O)NCC(=O)NCC(=O)N1CCC[C@H]1C(=O)N[C@@H](CO)C(=O)N[C@@H](CO)C(=O)NCC(=O)N[C@@H](C)C(=O)N1CCC[C@H]1C(=O)N1CCC[C@H]1C(=O)N1CCC[C@H]1C(=O)N[C@@H](CO)C(=O)O)[C@@H](C)CC)C(C)C)[C@@H](C)O)[C@@H](C)O)C(C)C [Agonist P372] (Hexanoyl-HSDAVFTDNYT[Orn]LR[Aib]QVAA[Aib]KYLQCI[Orn]N[Orn]GGPSSGAPPPS-OH; C-terminus assumed) | 0.65 nM | 4.82 nM | > 25000 nM | 0.18 nM | 1.67 nM | > 3000 nM | 13.93% |  | 
4 | HSDAVFTDNYTRLRKQVAAKKYLQSIKNKRQGGPSSGAPPPS [VPAC2 receptor peptide agonist P29] |  |  |  |  |  |  |  | 3.02 nM | 18.3 nM
